Read-outs that look alike come from different tables or passages of the source.
Experiments:
[1] = test system: women with sexual dysfunction; test: external application of misoprostol to the clitoris or/and to the vagina; format: in vivo; details: for local vasodilation after external application: used externally to the clitoris or/and to the vagina
Excerpt: Because of the local vasodilation is caused tumescence of the clitoris, intence bleeding of the vagina and feeling of sexual desire. Simultaneously, in women with anorgasmia of various causes, promote after masturbation or sexual intercourse, the coming of orgasm.
Method of application: 0.1 (or more, depending on responce) are applied to the clitoris or/and to the vagina.
(§1) As had already been mentioned, misoprostol is an extremely hydrophile molecule compared with other prostaglandins of E1 series (e.g. with alprostadil which can be dissolved in alcohol but her solubility in water is only 8000 mcg/100 ml at 35° C.).

[2] = solubility in water; format: physicochemical
Protocol: as §1

[3] = test system: patients; details: cited from earlier work
[4] = at 35° C.; cited from earlier work

undesirable effects in the presence of a-cyclodextrine ([1]; presence of a-cyclodextrine)	solubility in water [2]	Structure (SMILES)	time of appearance of the result ([1]; external application of the example forms)	systematic undesirable effects ([1]; high once only doses >1000 mcg to the clitoris or to the vagina)	misoprostol action in the presence of Polysorbate "80" ([1]; in the presence of Polysorbate "80")	change of misoprostol activity as a function of pH ([1]; pH of the pharmacotechnical form)	local vasodilation after external application [1]	carcinogenic or teratogenic effect ([3]; in vivo)	effect on uterus ([3]; in vivo)	undesirable effects in oral therapy ([3]; oral therapy)	solubility in water [4]
reduces the undesirable effects	can be dissolved in water	CCCCC(C)(O)C/C=C/[C@H]1[C@H](O)CC(=O)[C@@H]1CCCCCCC(=O)OC (mixture of isomers) [Misoprostol, (11a,13E)-(±)-11,16-Dihydroxy-16-methyl-9-oxoprost-13-en-1-oic acid methyl ester]	20 to 40 min	shudder, feeling of hard ship, excitement and diarrhea	important reduction or/and neutralization	No significant changes	strong local vasodilation	hasn't been accused	irritation of the smooth uterine fibbers	male impotence	
		CCCCC(C)(O)C/C=C/[C@H]1[C@H](O)CC(=O)[C@@H]1CCCCCCC(=O)O (mixture of isomers) [misoprostol acid]					Equally strong topical vasodilation				
		CCCCC[C@H](O)/C=C/[C@H]1[C@H](O)CC(=O)[C@@H]1CCCCCCC(=O)O [alprostadil]									8000 mcg/100 ml
